EP1247803A2, “Indolinone compounds suitable for modulation of protein kinases” (Sugen, Inc., priority 1996, dated 1998)

Tests used:
PDGF-R = PDGF-R (Homo sapiens, UniProt P09619); assay: PDGF-R ELISA; format: cell-based
Description: A PDGF-R ELISA is described in International Patent Publication No. WO 96/40116, published December 19, 1996 by Tang et al.

EGFR = target: T1, EGFR (Homo sapiens, UniProt P00533); assay: EGFR ELISA assay (in vitro kinase activity, EGFR captured from A431 cell lysate); format: biochemical; parameters: concentration or dose not given beside the values
T1 construct: Add 7 ug A431 cell lysate per well (EGFR source); endogenous in cells; host or cells: A431
In short: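 EGFR from A431 lysate was captured on plates coated with anti-EGFR antibody. Compounds were added 30 min before a 5 min phosphorylation with 3 µM ATP/5 mM MnCl2, which was stopped with 20 mM EDTA. Phosphotyrosine was detected with rabbit anti-phosphotyrosine, then a peroxidase-conjugated secondary and ABTS/H2O2, read at 410 nm.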

MET = MET biochemical kinase assay; parameters: species or system human; concentration or dose not given beside the values
In short: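 MET from cell lysates captured on ELISA plates via rabbit anti-MET cytoplasmic-domain antibody; compounds added and kinase reaction run in ATP and divalent-metal buffer. Receptor phosphotyrosine detected with HRP-conjugated anti-phosphotyrosine antibody and TMB colorimetry.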

Chain of PDGF-R (P09619 33-1106, species assumed): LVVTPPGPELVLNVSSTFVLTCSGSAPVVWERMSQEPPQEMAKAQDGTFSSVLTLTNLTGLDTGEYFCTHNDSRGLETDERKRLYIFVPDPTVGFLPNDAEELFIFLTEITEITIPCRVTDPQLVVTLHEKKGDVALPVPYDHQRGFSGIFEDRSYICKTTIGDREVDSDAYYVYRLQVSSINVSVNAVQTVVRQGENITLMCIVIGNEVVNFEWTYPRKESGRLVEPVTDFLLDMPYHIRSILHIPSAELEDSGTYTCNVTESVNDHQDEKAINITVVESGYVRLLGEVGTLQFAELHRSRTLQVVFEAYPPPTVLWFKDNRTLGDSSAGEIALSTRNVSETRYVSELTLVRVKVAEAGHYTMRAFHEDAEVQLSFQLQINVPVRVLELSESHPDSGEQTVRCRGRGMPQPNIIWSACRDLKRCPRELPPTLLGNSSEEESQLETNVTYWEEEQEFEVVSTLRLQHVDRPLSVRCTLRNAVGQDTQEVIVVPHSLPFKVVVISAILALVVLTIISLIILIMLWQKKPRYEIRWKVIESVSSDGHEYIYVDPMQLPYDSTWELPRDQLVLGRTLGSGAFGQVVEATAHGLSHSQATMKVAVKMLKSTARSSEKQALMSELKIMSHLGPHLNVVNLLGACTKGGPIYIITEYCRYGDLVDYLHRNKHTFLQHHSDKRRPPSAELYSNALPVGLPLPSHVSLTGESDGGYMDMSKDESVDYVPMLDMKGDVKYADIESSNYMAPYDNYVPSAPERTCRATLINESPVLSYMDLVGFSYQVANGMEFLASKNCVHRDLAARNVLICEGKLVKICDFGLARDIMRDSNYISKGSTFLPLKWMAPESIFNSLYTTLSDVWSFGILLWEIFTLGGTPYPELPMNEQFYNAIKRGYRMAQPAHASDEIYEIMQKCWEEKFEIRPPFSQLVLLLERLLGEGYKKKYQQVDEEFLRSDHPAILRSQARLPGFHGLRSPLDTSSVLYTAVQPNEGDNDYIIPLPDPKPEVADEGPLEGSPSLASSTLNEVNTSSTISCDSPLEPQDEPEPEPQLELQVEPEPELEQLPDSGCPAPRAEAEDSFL
T1 sequence (P00533 25-1210): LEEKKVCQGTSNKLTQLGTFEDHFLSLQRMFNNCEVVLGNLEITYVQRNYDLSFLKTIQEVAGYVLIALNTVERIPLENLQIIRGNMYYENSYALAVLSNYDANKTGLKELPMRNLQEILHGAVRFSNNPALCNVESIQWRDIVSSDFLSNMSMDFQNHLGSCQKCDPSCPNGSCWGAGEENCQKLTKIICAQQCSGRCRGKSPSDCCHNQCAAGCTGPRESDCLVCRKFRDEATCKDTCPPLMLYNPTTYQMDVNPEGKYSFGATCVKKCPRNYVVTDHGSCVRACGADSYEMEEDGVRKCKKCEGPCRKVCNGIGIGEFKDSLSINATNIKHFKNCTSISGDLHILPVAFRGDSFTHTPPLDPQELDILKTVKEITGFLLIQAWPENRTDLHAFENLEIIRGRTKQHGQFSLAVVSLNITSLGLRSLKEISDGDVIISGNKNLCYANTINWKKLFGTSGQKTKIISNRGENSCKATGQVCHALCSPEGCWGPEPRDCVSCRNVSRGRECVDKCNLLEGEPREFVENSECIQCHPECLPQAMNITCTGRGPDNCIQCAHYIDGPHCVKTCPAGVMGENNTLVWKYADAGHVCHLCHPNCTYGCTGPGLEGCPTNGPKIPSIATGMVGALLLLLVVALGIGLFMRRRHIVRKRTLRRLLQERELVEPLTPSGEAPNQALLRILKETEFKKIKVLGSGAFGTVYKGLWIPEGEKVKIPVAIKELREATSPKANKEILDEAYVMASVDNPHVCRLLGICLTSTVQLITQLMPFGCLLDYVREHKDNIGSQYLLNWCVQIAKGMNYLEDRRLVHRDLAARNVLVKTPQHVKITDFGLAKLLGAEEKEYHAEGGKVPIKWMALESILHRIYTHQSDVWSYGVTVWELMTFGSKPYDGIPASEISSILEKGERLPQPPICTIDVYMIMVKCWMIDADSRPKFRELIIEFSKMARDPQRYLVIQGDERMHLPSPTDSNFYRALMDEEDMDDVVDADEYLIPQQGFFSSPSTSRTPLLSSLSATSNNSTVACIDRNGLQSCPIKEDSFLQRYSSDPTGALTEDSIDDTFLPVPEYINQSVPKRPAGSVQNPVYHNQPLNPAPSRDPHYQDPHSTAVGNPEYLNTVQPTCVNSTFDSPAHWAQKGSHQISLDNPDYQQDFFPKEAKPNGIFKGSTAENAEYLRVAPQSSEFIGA

SMILES | PDGF Kinase %Inhibition (PDGF-R) [%] | Biochem EGFR %Inhibition (EGFR) [%] | Met Kinase % Inhibition (MET) [%]
CNS(=O)(=O)c1ccc2c(c1)C(=Cc1cc3c4c(c1O)CCCN4CCC3)C(=O)N2 [10724/D05] | 35.6 | -8.4 | 36.1
CNS(=O)(=O)c1ccc2c(c1)C(=Cc1cc(C(C)C)c(O)c(C(C)C)c1)C(=O)N2 [10724/D06] | 40.4 | -12.4 | 23.0
CNS(=O)(=O)c1ccc2c(c1)C(=Cc1cc3ccccc3o1)C(=O)N2 [10724/D07] | 7.0 | 25.6 | 38.1
CNS(=O)(=O)c1ccc2c(c1)C(=Cc1cccn1-c1ccc(Cl)cc1)C(=O)N2 [10724/D09] | 18.9 | -15.3 | 16.1
CCc1ccc(C=C2C(=O)Nc3ccc(S(=O)(=O)NC)cc32)o1 [10724/D10] | 38.3 | 12.7 | 59.6
CNS(=O)(=O)c1ccc2c(c1)C(=Cc1sc3scc(C)c3c1C)C(=O)N2 [10724/D11] | 29.3 | 12.9 | 20.3
CN(C)c1ccc(C=C2C(=O)Nc3ccc(S(=O)(=O)Nc4ccc(C(F)(F)F)cc4)cc32)c2ccccc12 [10724/E02] | -54.2 | 39.8 | 55.4
O=C1Nc2ccc(S(=O)(=O)Nc3ccc(C(F)(F)F)cc3)cc2C1=Cc1ccc(O)c([N+](=O)[O-])c1 [10724/E03] | 14.7 | 33.1 | 85.8
O=C1Nc2ccc(S(=O)(=O)Nc3ccc(C(F)(F)F)cc3)cc2C1=Cc1ccc([N+](=O)[O-])c(O)c1 [10724/E04] | -32.6 | 8.9 | 93.3
O=C1Nc2ccc(S(=O)(=O)Nc3ccc(C(F)(F)F)cc3)cc2C1=Cc1cc2c3c(c1O)CCCN3CCC2 [10724/E05] | -7.6 | 0.5 | 70.3
CC(C)c1cc(C=C2C(=O)Nc3ccc(S(=O)(=O)Nc4ccc(C(F)(F)F)cc4)cc32)cc(C(C)C)c1O [10724/E06] | 6.3 | 1.6 | 25.8
O=C1Nc2ccc(S(=O)(=O)Nc3ccc(C(F)(F)F)cc3)cc2C1=Cc1cc2ccccc2o1 [10724/E07] | 0.1 | 9.4 | 46.8
O=C1Nc2ccc(S(=O)(=O)Nc3ccc(C(F)(F)F)cc3)cc2C1=Cc1cccn1-c1ccc(Cl)cc1 [10724/E09] | 21.0 | 6.3 | 27.0
CCc1ccc(C=C2C(=O)Nc3ccc(S(=O)(=O)Nc4ccc(C(F)(F)F)cc4)cc32)o1 [10724/E10] | 34.9 | 41.4 | 84.0
Cc1csc2sc(C=C3C(=O)Nc4ccc(S(=O)(=O)Nc5ccc(C(F)(F)F)cc5)cc43)c(C)c12 [10724/E11] | 5.0 | -26.8 | 39.3
CN(C)c1ccc(C=C2C(=O)Nc3ccc(CCCl)cc32)c2ccccc12 [10724/G02] | -7.6 | 42.5 | 44.9
O=C1Nc2ccc(CCCl)cc2C1=Cc1ccc(O)c([N+](=O)[O-])c1 [10724/G03] | -2.7 | 7.8 | 36.7
O=C1Nc2ccc(CCCl)cc2C1=Cc1ccc([N+](=O)[O-])c(O)c1 [10724/G04] | -12.4 | 12.9 | 71.0

SMILES | PDGF Kinase %Inhibition (PDGF-R) [%] | Biochem EGFR %Inhibition (EGFR) [%] | Met Kinase % Inhibition (MET) [%]
O=C1Nc2ccc(CCCl)cc2C1=Cc1cc2c3c(c1O)CCCN3CCC2 [10724/G05] | -10.3 | -20.8 | 61.0
CC(C)c1cc(C=C2C(=O)Nc3ccc(CCCl)cc32)cc(C(C)C)c1O [10724/G06] | -6.9 | 3.2 | 20.3
O=C1Nc2ccc(CCCl)cc2C1=Cc1cc2ccccc2o1 [10724/G07] | -41.6 | -11.7 | 2.3
O=C1Nc2ccc(CCCl)cc2C1=Cc1cccn1-c1ccc(Cl)cc1 [10724/G09] | -18.0 | -21.7 | -2.8
CCc1ccc(C=C2C(=O)Nc3ccc(CCCl)cc32)o1 [10724/G10] | -15.9 | -10.6 | 62.8
Cc1csc2sc(C=C3C(=O)Nc4ccc(CCCl)cc43)c(C)c12 [10724/G11] | -29.1 | -29.5 | 11.2
O=C1Nc2c(Br)cc(Br)cc2C1=Cc1sccc1Br [10725/A02] | -14.2 | 3.9 | 46.6
COc1ccc(Br)c(C=C2C(=O)Nc3c(Br)cc(Br)cc32)c1O [10725/A03] | 5.9 | -38.2 | 68.0
Cc1cc(C=C2C(=O)Nc3c(Br)cc(Br)cc32)[nH]n1 [10725/A05] | 13.1 | 7.9 | 47.5
COc1cc(C)cc(O)c1C=C1C(=O)Nc2c(Br)cc(Br)cc21 [10725/A06] | 40.9 | -9.5 | 71.7
O=CN1CCN(c2ccc(C=C3C(=O)Nc4c(Br)cc(Br)cc43)cc2)CC1 [10725/A07] | 17.9 | 18.2 | 59.3
O=C1Nc2c(Br)cc(Br)cc2C1=Cc1ccc(N2CCOCC2)cc1 [10725/A08] | 14.1 | 10.9 | 45.3
COC(=O)Cc1c(Cl)[nH]c(C=C2C(=O)Nc3c(Br)cc(Br)c(C)c32)c1C(=O)OC [10725/A09] | 29.4 | 4.9 | 44.3
Cc1c(Br)cc(Br)c2c1C(=Cc1c(Br)cnn1-c1ccc(Cl)cc1)C(=O)N2 [10725/A10] | 33.7 | 14.0 | 43.2
Cc1c(Br)cc(Br)c2c1C(=Cc1c[nH]cn1)C(=O)N2 [10725/A11] | 18.9 | 14.6 | 49.1
O=C1Nc2ccc(I)cc2C1=Cc1sccc1Br [10725/B02] | -7.5 | 2.5 | 66.9
COc1ccc(Br)c(C=C2C(=O)Nc3ccc(I)cc32)c1O [10725/B03] | 7.8 | -15.3 | 70.8
Cc1cc(C=C2C(=O)Nc3ccc(I)cc32)[nH]n1 [10725/B05] | 44.7 | 20.4 | 68.3
